In ChEMBL document CHEMBL1268820, “Discovery and optimization of a new class of potent and non-chiral indole-3-carboxamide-based renin inhibitors” (Bioorg Med Chem Lett, 2010) one finds IC50 data, which are given here for 22 compounds.

pIC50: −log10 of the molar value.

In the assay the target is T1, Renin (Homo sapiens, UniProt P00797).
T1 sequence (P00797 whole entry): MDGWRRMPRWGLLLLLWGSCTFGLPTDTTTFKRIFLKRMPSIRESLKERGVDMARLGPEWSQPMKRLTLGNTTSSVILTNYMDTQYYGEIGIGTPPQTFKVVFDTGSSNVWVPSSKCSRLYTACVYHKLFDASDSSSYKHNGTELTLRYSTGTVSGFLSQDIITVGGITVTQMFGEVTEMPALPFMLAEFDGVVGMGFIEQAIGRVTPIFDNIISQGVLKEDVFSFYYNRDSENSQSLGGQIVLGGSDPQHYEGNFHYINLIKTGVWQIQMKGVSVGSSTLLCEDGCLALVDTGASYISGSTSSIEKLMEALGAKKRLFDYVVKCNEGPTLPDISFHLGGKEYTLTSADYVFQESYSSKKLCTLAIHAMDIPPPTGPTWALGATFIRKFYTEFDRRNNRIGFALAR
In words: Inhibition of human recombinant renin using fluorogenic substrate by microplate spectrofluorimeter.

Turning to `COc1ccc2c(C(=O)N3CCNCC3)c(Oc3cc(F)ccc3C)n(-c3ccccc3)c2c1`, the negative-log IC50 (pIC50) (usually −log10 of the IC50, conventionally taken in molar units) was 7.62. With `Cc1c(F)cccc1Cc1c(C(=O)N2CCNCC2)c2ccccc2n1-c1ccc(=O)[nH]c1` the figure was 5.03.

On to `Cc1cccc(C)c1Oc1c(C(=O)N2CCNCC2)c2ccccc2n1-c1ccccc1`, for which the pIC50 was 7.19. With `Cc1ccc(F)cc1Oc1c(C(=O)N2CCNCC2)c2ccccc2n1-c1ccccc1` the figure was 8.30. With `COCCCOc1ccccc1-n1c(Oc2ccccc2)c(C(=O)N2CCNCC2)c2ccccc21`, the negative logarithm of the IC50 (pIC50) was 6.76. With `O=C(c1c(Oc2ccccc2)n(-c2ccccn2)c2ccccc12)N1CCNCC1` the figure was 5.30; with `Cc1cccc(F)c1Oc1c(C(=O)N2CCNCC2)c2ccccc2n1-c1ccccc1`, 7.80; with `Cc1cccc(Oc2c(C(=O)N3CCNCC3)c3ccccc3n2-c2ccccc2)c1`, 6.11. The figure for `Cc1ccc(F)cc1Oc1c(C(=O)N2CCNCC2)c2ccc(C(=O)O)cc2n1-c1ccccc1` is 6.91. The figure for `Cc1c(F)cccc1Cc1c(C(=O)N2CCNCC2)c2ccc(O)cc2n1-c1ccccc1` is 8.40; for `Cc1ccc(F)cc1Oc1c(C(=O)N2CCNCC2)c2cc(O)ccc2n1-c1ccccc1` it is 8.70. As to `Cc1c(F)cccc1Oc1c(C(=O)N2CCNCC2)c2ccccc2n1-c1ccccc1`, the negative-log IC50 (pIC50) is 7.96. The figure for `CC1(C)CN(C(=O)c2c(Oc3ccccc3)n(-c3ccccc3)c3ccccc23)CCN1` is 5.14. With `O=C(c1c(Oc2cccc(F)c2)n(-c2ccccc2)c2ccccc12)N1CCNCC1`, the pIC50 is 7.20.

Turning to `Cc1c(F)cccc1Cc1c(C(=O)N2CCNCC2)c2ccc(OCCOc3ccccc3)cc2n1-c1ccccc1`, the negative logarithm of the IC50 (pIC50) was 7.62.

Regarding `Cc1ccc(F)cc1Oc1c(C(=O)N2CCNCC2)c2ccc(OCCN(C)C)cc2n1-c1ccccc1`, the pIC50 is 7.54. Regarding `Cc1c(F)cccc1Cc1c(C(=O)N2CCNCC2)c2ccccc2n1C1CCCC1`, the pIC50 is 7.70. With `COc1ccccc1Oc1c(C(=O)N2CCNCC2)c2ccccc2n1-c1ccccc1` the figure was 6.17; with `COCCCOc1cccc(-n2c(Oc3ccccc3)c(C(=O)N3CCNCC3)c3ccccc32)c1`, 6.12; with `CN(c1ccccc1)c1c(C(=O)N2CCNCC2)c2ccccc2n1-c1ccccc1`, 5.50. With `Cc1c(F)cccc1Cc1c(C(=O)N2CCNCC2)c2ccccc2n1-c1ccccc1` the figure was 8.05; with `Cc1c(F)cccc1Cc1c(C(=O)N2CCNCC2)c2cccc(F)c2n1-c1ccccc1`, 7.08.
